Common to all, as to type: physicochemical
Series [1] in a line: Effective magnetic moment from magnetic susceptibility balance (MSB). As to conditions: per formula unit. The protocol:
Magnetic properties were analyzed using a magnetic susceptibility balance (MSB, Sherwood Scientific, Cambridge, UK) and a Quantum Design Superconducting Quantum Interference Device (SQUID) magnetometer (MPMS XL-7). The magnetic properties of transition metal MILs were further studied using a SQUID magnetometer to confirm their paramagnetic nature as well as if any magnetic transition occurs in the samples.
Magnetic susceptibility (XM) was calculated through Equation (1).
Effective magnetic moment (μeff) was calculated through Equation (2). In Equation (2), T represents the temperature at which the magnetic susceptibility measurements were conducted.
15 MILs incorporating rare-earth and transition metals were examined using a magnetic susceptibility balance (MSB).

Series [2] can be described thus: Solubility of MILs in organic solvents and water. An excerpt:
The solubility of lanthanide and transition metal MILs was investigated in popular traditional organic solvents. […]
The solubility of lanthanide and transition metal MILs was investigated in popular traditional organic solvents.

Series [3] can be described thus: Thermal stability by thermogravimetric analysis (TGA). The conditions noted are these: TGA at 10% weight loss. The protocol: (§1) The thermal stability of MILs was measured from 40 to 350° C. at a ramp rate of 5° C. min^−1 by performing thermogravimetric analysis (TGA) using a NETZSCH STA 449 F1 Jupiter thermal analyzer (Selb, Germany). To further investigate the thermal stability of MILs using a more sensitive technique, the solvents were employed as a gas chromatographic (GC) stationary phase and subjected to an oven temperature program from 40 to 200° C. at a ramp rate of 1° C. min^−1 and decomposition/degradation products detected using an ultra-sensitive flame ionization detector (FID), with all measurements being performed on an Agilent Technologies 7890B gas chromatograph (Santa Clara, CA, USA).
Volitization/degradation of MILs as a function of temperature were measured using thermogravimetric analysis. The thermal stability of magnetic ionic liquids was measured from 40 to 350° C. at a ramp rate of 5° C. min^−1 by performing thermogravimetric analysis (TGA) using a NETZSCH STA 449 F1 Jupiter thermal analyzer (Selb, Germany).
To investigate the ability of DGE-based MILs to withstand elevated temperatures without undergoing degradation/decomposition, their thermal stabilities were investigated using thermogravimetric analysis (TGA). FIG. 13 through FIG. 27 display thermograms for MILs 1 to 15. The thermogram results are summarized in greater detail in the following paragraphs.

Series [4] can be described thus: Thermal stability, MIL as GC stationary phase with FID. The conditions noted are these: exponential increase in response beyond 2,000 pA. The protocol:
as §1
To further investigate the thermal stability of MILs using a more sensitive technique, the solvents were employed as a gas chromatographic (GC) stationary phase and subjected to an oven temperature program from 40 to 200° C. at a ramp rate of 1° C. min^−1 and decomposition/degradation products detected using an ultra-sensitive flame ionization detector (FID).

The nature of series [5]: Viscosity, Brookfield DVI cone and plate viscometer. As to conditions: 21.7° C.; neat MIL dried 48 hours under vacuum. The protocol:
A Brookfield DVI cone and plate viscometer equipped with a CPA-51Z cone spindle was employed to obtain viscosity measurements at […] using approximately 0.5 g of each MIL after extensive drying for 48 hours under vacuum. Viscosity measurements were conducted at 21.7° C. for 15 lanthanide and transition metal MILs examined in this study.
Viscosity measurements were conducted at 21.7° C. for 15 lanthanide and transition metal MILs examined in this study.

The mark [6] stands for this setting: acetone, chloroform, dichloromethane, acetonitrile, methanol, ethanol, diethyl ether, ethyl acetate, isopropanol at 20% (w/v).
[7] abbreviates: hexane, heptane, benzene, toluene at 10% (w/v).
The mark [8] stands for this setting: hexane, heptane, benzene, toluene at 20% (w/v).
The mark [9] stands for this setting: twelve organic solvents (without acetonitrile) at 50% (w/v).

On to `CCCCCCCCOC(=O)COCC(=O)OCCCCCCCC.CCCCCCCCOC(=O)COCC(=O)OCCCCCCCC.CCCCCCCCOC(=O)COCC(=O)OCCCCCCCC.CCCCCCCCOC(=O)COCC(=O)OCCCCCCCC.CCCCCCCCOC(=O)COCC(=O)OCCCCCCCC.CCCCCCCCOC(=O)COCC(=O)OCCCCCCCC.O=C(C=C([O-])C(F)(F)F)C(F)(F)F.O=C(C=C([O-])C(F)(F)F)C(F)(F)F.O=C(C=C([O-])C(F)(F)F)C(F)(F)F.O=C(C=C([O-])C(F)(F)F)C(F)(F)F.O=C(C=C([O-])C(F)(F)F)C(F)(F)F.O=C(C=C([O-])C(F)(F)F)C(F)(F)F.[Ni+2].[Ni+2].[Ni+2]` [compound 5], for which the “μeff, effective magnetic moment” value in series [1] amounted to 5.33 μB. The Solubility entry was “S^b (soluble in acetone, chloroform, dichloromethane, acetonitrile, methanol, ethanol, diethyl ether, ethyl acetate, and isopropanol at 20% (w/v).)” in series [2] (setting [6]); “S^a (soluble in hexane, heptane, benzene, and toluene at 10% (w/v).)” in series [2] (setting [7]); “S^c (soluble in hexane, heptane, benzene, and toluene at 20% (w/v).)” in series [2] (setting [8]); “S^d (soluble in acetone, chloroform, dichloromethane, methanol, ethanol, diethyl ether, ethyl acetate, isopropanol hexane, heptane, benzene, and toluene at 50% (w/v).)” in series [2] (setting [9]); “S^f (insoluble in water at 0.01% (w/v).)” in series [2] (water at 0.01% (w/v)). The “Onset of MIL volatilization (° C.)^2” value in series [3] turned out to be 264.4 °C. The “Onset of MIL volatilization (° C.)^1” value in series [4] is 190 °C. The “Viscosity (cP)” value in series [5] turned out to be 119.1 cP.
As to `CCCCCCCCOC(=O)COCC(=O)OCCCCCCCC.CCCCCCCCOC(=O)COCC(=O)OCCCCCCCC.CCCCCCCCOC(=O)COCC(=O)OCCCCCCCC.CCCCCCCCOC(=O)COCC(=O)OCCCCCCCC.CCCCCCCCOC(=O)COCC(=O)OCCCCCCCC.CCCCCCCCOC(=O)COCC(=O)OCCCCCCCC.O=C(C=C([O-])C(F)(F)F)C(F)(F)F.O=C(C=C([O-])C(F)(F)F)C(F)(F)F.O=C(C=C([O-])C(F)(F)F)C(F)(F)F.O=C(C=C([O-])C(F)(F)F)C(F)(F)F.O=C(C=C([O-])C(F)(F)F)C(F)(F)F.O=C(C=C([O-])C(F)(F)F)C(F)(F)F.[Mn+2].[Mn+2].[Mn+2]` [compound 6], in series [1], the “μeff, effective magnetic moment” value is reported as 10.25 μB. Besides, the Solubility result was “S^b (soluble in acetone, chloroform, dichloromethane, acetonitrile, methanol, ethanol, diethyl ether, ethyl acetate, and isopropanol at 20% (w/v).)” in series [2] (setting [6]); “S^a (soluble in hexane, heptane, benzene, and toluene at 10% (w/v).)” in series [2] (setting [7]); “S^c (soluble in hexane, heptane, benzene, and toluene at 20% (w/v).)” in series [2] (setting [8]); “S^d (soluble in acetone, chloroform, dichloromethane, methanol, ethanol, diethyl ether, ethyl acetate, isopropanol hexane, heptane, benzene, and toluene at 50% (w/v).)” in series [2] (setting [9]); “S^f (insoluble in water at 0.01% (w/v).)” in series [2] (water at 0.01% (w/v)). Also, in series [3], the “Onset of MIL volatilization (° C.)^2” value turned out to be 259.1 °C. Moreover, the “Onset of MIL volatilization (° C.)^1” value in series [4] is 182 °C. The “Viscosity (cP)” value in series [5] amounted to 96.3 cP.
On to `O=C(C=C([O-])C(F)(F)F)C(F)(F)F.O=C(C=C([O-])C(F)(F)F)C(F)(F)F.O=C(C=C([O-])C(F)(F)F)C(F)(F)F.O=C(C=C([O-])C(F)(F)F)C(F)(F)F.O=C(C=C([O-])C(F)(F)F)C(F)(F)F.O=C(C=C([O-])C(F)(F)F)C(F)(F)F.O=C(COCC(=O)OC1CCCCC1)OC1CCCCC1.O=C(COCC(=O)OC1CCCCC1)OC1CCCCC1.O=C(COCC(=O)OC1CCCCC1)OC1CCCCC1.O=C(COCC(=O)OC1CCCCC1)OC1CCCCC1.O=C(COCC(=O)OC1CCCCC1)OC1CCCCC1.O=C(COCC(=O)OC1CCCCC1)OC1CCCCC1.[Co+2].[Co+2].[Co+2]` [compound 7], for which, in series [1], the “μeff, effective magnetic moment” value came out at 8.11 μB. Moreover, the Solubility entry in series [2] (setting [6]) is “S^b (soluble in acetone, chloroform, dichloromethane, acetonitrile, methanol, ethanol, diethyl ether, ethyl acetate, and isopropanol at 20% (w/v).)”; in series [2] (acetonitrile at 50% (w/v)), “S^e (insoluble in acetonitrile at 50% (w/v).)”; in series [2] (setting [7]), “S^a (soluble in hexane, heptane, benzene, and toluene at 10% (w/v).)”; in series [2] (setting [8]), “S^c (soluble in hexane, heptane, benzene, and toluene at 20% (w/v).)”; in series [2] (setting [9]), “S^d (soluble in acetone, chloroform, dichloromethane, methanol, ethanol, diethyl ether, ethyl acetate, isopropanol hexane, heptane, benzene, and toluene at 50% (w/v).)”; in series [2] (water at 0.01% (w/v)), “S^f (insoluble in water at 0.01% (w/v).)”. Besides, the “Onset of MIL volatilization (° C.)^2” value in series [3] was 200.1 °C. Moreover, in series [4], the “Onset of MIL volatilization (° C.)^1” value is 133 °C. Further, in series [5], the “Viscosity (cP)” value is listed as 639.4 cP.
Regarding `O=C(C=C([O-])C(F)(F)F)C(F)(F)F.O=C(C=C([O-])C(F)(F)F)C(F)(F)F.O=C(C=C([O-])C(F)(F)F)C(F)(F)F.O=C(C=C([O-])C(F)(F)F)C(F)(F)F.O=C(C=C([O-])C(F)(F)F)C(F)(F)F.O=C(C=C([O-])C(F)(F)F)C(F)(F)F.O=C(COCC(=O)OC1CCCCC1)OC1CCCCC1.O=C(COCC(=O)OC1CCCCC1)OC1CCCCC1.O=C(COCC(=O)OC1CCCCC1)OC1CCCCC1.O=C(COCC(=O)OC1CCCCC1)OC1CCCCC1.O=C(COCC(=O)OC1CCCCC1)OC1CCCCC1.O=C(COCC(=O)OC1CCCCC1)OC1CCCCC1.[Ni+2].[Ni+2].[Ni+2]` [compound 8], in series [1], the “μeff, effective magnetic moment” value was 5.53 μB. The Solubility entry in series [2] (setting [6]) was “S^b (soluble in acetone, chloroform, dichloromethane, acetonitrile, methanol, ethanol, diethyl ether, ethyl acetate, and isopropanol at 20% (w/v).)”; in series [2] (acetonitrile at 50% (w/v)), “S^e (insoluble in acetonitrile at 50% (w/v).)”; in series [2] (setting [7]), “S^a (soluble in hexane, heptane, benzene, and toluene at 10% (w/v).)”; in series [2] (setting [8]), “S^c (soluble in hexane, heptane, benzene, and toluene at 20% (w/v).)”; in series [2] (setting [9]), “S^d (soluble in acetone, chloroform, dichloromethane, methanol, ethanol, diethyl ether, ethyl acetate, isopropanol hexane, heptane, benzene, and toluene at 50% (w/v).)”; in series [2] (water at 0.01% (w/v)) it was “S^f (insoluble in water at 0.01% (w/v).)”. For the same compound, the “Onset of MIL volatilization (° C.)^2” value in series [3] worked out at 182.2 °C. Besides, the “Onset of MIL volatilization (° C.)^1” value in series [4] amounted to 154 °C. The “Viscosity (cP)” value in series [5] was determined as 827.6 cP.
On to `O=C(C=C([O-])C(F)(F)F)C(F)(F)F.O=C(C=C([O-])C(F)(F)F)C(F)(F)F.O=C(C=C([O-])C(F)(F)F)C(F)(F)F.O=C(C=C([O-])C(F)(F)F)C(F)(F)F.O=C(C=C([O-])C(F)(F)F)C(F)(F)F.O=C(C=C([O-])C(F)(F)F)C(F)(F)F.O=C(COCC(=O)OC1CCCCC1)OC1CCCCC1.O=C(COCC(=O)OC1CCCCC1)OC1CCCCC1.O=C(COCC(=O)OC1CCCCC1)OC1CCCCC1.O=C(COCC(=O)OC1CCCCC1)OC1CCCCC1.O=C(COCC(=O)OC1CCCCC1)OC1CCCCC1.O=C(COCC(=O)OC1CCCCC1)OC1CCCCC1.[Mn+2].[Mn+2].[Mn+2]` [compound 9], for which, in series [1], the “μeff, effective magnetic moment” value turned out to be 9.96 μB. Also, the Solubility entry in series [2] (setting [6]) is “S^b (soluble in acetone, chloroform, dichloromethane, acetonitrile, methanol, ethanol, diethyl ether, ethyl acetate, and isopropanol at 20% (w/v).)”; in series [2] (acetonitrile at 50% (w/v)), “S^e (insoluble in acetonitrile at 50% (w/v).)”; in series [2] (setting [7]), “S^a (soluble in hexane, heptane, benzene, and toluene at 10% (w/v).)”; in series [2] (setting [8]), “S^c (soluble in hexane, heptane, benzene, and toluene at 20% (w/v).)”; in series [2] (setting [9]), “S^d (soluble in acetone, chloroform, dichloromethane, methanol, ethanol, diethyl ether, ethyl acetate, isopropanol hexane, heptane, benzene, and toluene at 50% (w/v).)”; in series [2] (water at 0.01% (w/v)) it was “S^f (insoluble in water at 0.01% (w/v).)”. For the same compound, the “Onset of MIL volatilization (° C.)^2” value in series [3] was 176.9 °C. In addition, the “Onset of MIL volatilization (° C.)^1” value in series [4] stood at 159 °C. For the same compound, the “Viscosity (cP)” value in series [5] is reported as 478.9 cP.

The values are drawn from patent publication US20240401154A1, “SYNTHESIS AND PREPARATION OF ULTRA-LOW VISCOSITY AND HIGH MAGNETIC SUSCEPTIBILITY MAGNETIC IONIC LIQUIDS” (priority 2023, published 2024).
